Laboratory results published in publication PMC3236199, “Development of Derivatives of 3, 3′-Diindolylmethane as Potent Leishmania donovani Bi-Subunit Topoisomerase IB Poisons” (PLoS ONE, 2011).
pKd: −log10 of the molar value.

Experiments:
CT DNA = assay: Spectrofluorometric binding assay (fluorescence quenching); conditions: for pKd: CT DNA 10 to 200 µM, 25°C, Scatchard analysis, read-out: dissociation constant (KD)
Method: Fluorescence titration was measured using Perkin Elmer, LS55, and Luminescence spectrometer. The intrinsic binding of DIM-derivatives to DNA was performed separately by fluorescence measurements at an excitation wavelength of 335 nm, 265 nm and 338 nm and emission range of 350 to 450 nm, 300 to 450 nm and 380 to 540 nm for DPDIM, DMDIM and DMODIM, respectively. Excitation and emission slit widths were 5 nm and 7.5 nm; 5 nm and 15 nm; and 5 nm and 15 nm for DPDIM, DMDIM and DMODIM, respectively. Background emission (<2%) was corrected by subtraction of spectra of blank buffer, DNA plus sample buffer and compounds plus sample buffer, respectively. Spectral titration was performed with DIM derivatives at 25°C in fluorescence buffer (20 mM Tris-HCL, pH 7.5, 50 mM NaCl and 10 mM MgCl2). CT DNA was added in increasing concentrations (10 to 200 µM), which are indicated in the legend. All the assays were performed in duplicate, titration points are corrected as described above and binding constants for DIM DNA-compound interaction were determined according to following equation: [drawing 2] (Eq–1) where ΔF = Fx−Fo, Fx and Fo representing the florescence intensity of DIM derivatives in the presence or absence of the added total DNA (St), respectively. ΔFmax is the maximum change in the fluorescence intensity. The intercept of the plot on the 1/F axis corresponding to 1/St = 0 measures the 1/Fmax, while the slope gives the estimation of the affinity constant (Ka). The dissociation constant KD = 1/Ka.
Therefore, it was of interest to determine whether DIM derivatives could interact with DNA. Fluorescence quenching assay was performed to determine the interaction between the derivatives of DIM and DNA at different concentrations of DNA (10 to 200 µM). DPDIM has fluorescence emission maximum (λem ^max) at the wavelength of 390 nm with a λex of 335 nm, whereas DMDIM has fluorescence emission maximum at a wavelength of 379 nm with a λex of 265 nm and DMODIM has fluorescence emission maximum at a wavelength of 450 nm with a λex of 338 nm. The excitation and emission slit widths were set at 5 nm and 7.5 nm for DPDIM, 5 nm and 15 nm for DMDIM; and 5 nm and 15 nm for DMODIM. Appropriate blanks corresponding to the buffer were subtracted to correct the background fluorescence. The fluorescence intensity decreases by increasing the concentration of DNA due to quenching reaction. Addition of DNA causes a slight shift of the maximum peak (λ shift) from 390 nm to 386 nm for DPDIM and from 379 nm to 374 nm for DMDIM with a concomitant decrease in fluorescence intensity (Fig. 7A and B). There is no λ shift for DMODIM (Fig. 7C). A progressive change in the fluorescence spectra of three DIM-derivatives on addition of different concentrations of DNA indicated an association between them.
Figure 7 Fluorescence quenching study of DIM derivatives-DNA interaction. (A) CT DNA concentration-dependently quenched DPDIM fluorescence at 390 nm. (B) CT DNA concentration-dependently quenched DMDIM fluorescence at 379 nm. (C) CT DNA concentration-dependently quenched DMODIM fluorescence at 450 nm. The arrow of each figure indicates the change in the emission spectra of DPDIM, DMDIM and DMODIM respectively on addition of CT DNA.

[1] = tested on: DIM resistant L. donovani axenic amastigotes; assay: Cell viability assay, DIM resistant axenic amastigotes; type: cell-based; conditions: Leishmania donovani, 12 h, read-out: growth inhibited
Method: L. donovani strain AG83 and DIM resistant parasite DR50 promastigotes were grown at 22°C in M199 liquid media supplemented with 10% FBS as described. Axenic amastigotes were cultured in modified M199 medium (pH 5.3) supplemented with 10 mM sodium succinate, 40 mM HEPES and 25% FCS and maintained at 37°C with 5% CO2.The effect of drugs on the viability of Leishmania parasites was determined by direct microscopic counting using light microscope (40× objective) in a haemocytometer. The cells at the exponential phase were collected and transferred into 24-well plate (3.5×10^6 cells per well). The cells were then incubated for 12 h in the presence of various concentrations of DIM, DPDIM, DMDIM and DMODIM (1, 5, 10, 20 and 50 µM). For other experiments, 10^4 cells were taken and grown in presence of the respective derivatives for a period of 30 days. For each 5 day interval, a small amount of aliquots were taken out. After incubation the cells were centrifuged and cell pellet was washed with PBS (1×) twice and finally suspended in 1 ml PBS (1×). Fifty µl of aliquot was taken, mixed with 0.4% trypan blue solution and incubated for 3 min at 22°C. One drop of the mixture was transferred to haemocytometer and the clear (live) and blue (dead) cells were counted. The total number of viable cells in aliquot was calculated by multiplying the total number of viable cells by 2 (the dilution factor for trypan blue). […] Percentages of viable cells were calculated using the formula: [drawing 1]
Figure 3 Effectiveness of clearance of internalized L. donovani (AG83) from in vitro infected mouse M [drawing 3] . […] Cells were fixed, stained with Giemsa and counted under bright field microscope. […] Experiments were carried out for three times and representative results are the mean ± S.D. (B) Growth of DIM resistant L. donovani axenic amastigotes were monitored in presence of increasing concentrations (2, 5, 10, 20 and 50 µM) of DIM, DPDIM, DMDIM and DMODIM for 12 h. […] Growth of the parasites treated with the compounds was expressed as percentage of the viable promastigotes compared with that of control. […]

SMILES	pKd (CT DNA)	inhibition at 50 µM [1] [%]	affinity to DNA less compared to DIM (CT DNA; versus DIM) [fold]	affinity to DNA greater compared to DIM (CT DNA; versus DIM mother compound) [fold]
Cc1[nH]c2ccccc2c1Cc1c(C)[nH]c2ccccc12 [DMDIM, 2,2′-dimethyl 3,3′-diindolyl methane]	4.20	92	–	–
COc1ccc2[nH]cc(Cc3c[nH]c4ccc(OC)cc34)c2c1 [DMODIM, 5,5′-dimethoxy 3,3′-diindolyl methane]	4.32	79	~2	–
c1ccc(-c2[nH]c3ccccc3c2Cc2c(-c3ccccc3)[nH]c3ccccc23)cc1 [DPDIM, 2,2′-diphenyl 3,3′-diindolyl methane]	4.96	98	–	2
